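Protocol summary: plate cells (96-well), add compound at 5 concentrations, incubate 48 h, interpolate endpoints linearly. Definition used: TGI = concentration required for complete inhibition of growth.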
How the values were obtained:
Assay in all cases: growth of human tumour cells (NCI), 48 h
[1] = test system: 786-0 renal
[2] = test system: A498 renal
[3] = test system: A549 NSCLC
[4] = test system: ACHN renal
[5] = test system: CAKI-1 renal
[6] = test system: CCRF-CEM leukemia
[7] = test system: COLO 205 colon
[8] = test system: DLD-1 colon
[9] = test system: DMS 114 small cell lung
[10] = test system: DMS 273 small cell lung
[11] = test system: EKVX NSCLC
[12] = test system: HCC-2998 colon
[13] = test system: HCT-15 colon
[14] = test system: HL-60(TB) leukemia
[15] = test system: HOP-18 NSCLC
[16] = test system: HOP-62 NSCLC
[17] = test system: HOP-92 NSCLC
[18] = test system: HT29 colon
[19] = test system: IGROV1 ovarian
[20] = test system: K-562 leukemia
[21] = test system: KM12 colon
[22] = test system: KM20L2 colon
[23] = test system: LOX IMVI melanoma
[24] = test system: LXFL 529 NSCLC
[25] = test system: M14 melanoma
[26] = test system: M19-MEL melanoma
[27] = test system: MALME-3M melanoma
[28] = test system: MOLT-4 leukemia
[29] = test system: NCI-H226 lung
[30] = test system: NCI-H23 lung
[31] = test system: NCI-H460 lung
[32] = test system: NCI-H522 lung
[33] = test system: OVCAR-3 ovarian
[34] = test system: OVCAR-4 ovarian
[35] = test system: OVCAR-5 ovarian
[36] = test system: OVCAR-8 ovarian
[37] = test system: RPMI-8226 leukemia
[38] = test system: RXF 393 renal
[39] = test system: RXF-631 renal
[40] = test system: SF-268 CNS
[41] = test system: SF-295 CNS
[42] = test system: SF-539 CNS
[43] = test system: SK-MEL-2 melanoma
[44] = test system: SK-MEL-28 melanoma
[45] = test system: SK-MEL-5 melanoma
[46] = test system: SK-OV-3 ovarian
[47] = test system: SN12C renal
[48] = test system: SNB-19 CNS
[49] = test system: SNB-75 CNS
[50] = test system: SNB-78 CNS
[51] = test system: SW-620 colon
[52] = test system: TK-10 renal
[53] = test system: U251 CNS
[54] = test system: UACC-257 melanoma
[55] = test system: UACC-62 melanoma
[56] = test system: UO-31 renal
[57] = test system: XF 498 CNS
[58] = test system: BT-549 breast
[59] = test system: DU-145 prostate
[60] = test system: HCT-116 colon
[61] = test system: MCF7 breast
[62] = test system: MDA-MB-435
[63] = test system: PC-3 prostate
[64] = test system: SR leukemia
[65] = test system: T-47D breast

Compound: Cc1nc2ccccc2c(=O)n1/N=C(\N=Nc1ccccc1)c1ccccc1Cl
- TGI [1]: 99.9 µM
- TGI [2]: > 100 µM
- TGI [3]: > 100 µM
- TGI [4]: > 100 µM
- TGI [5]: 81.4 µM
- TGI [6]: > 100 µM
- TGI [7]: > 100 µM
- TGI [8]: > 100 µM
- TGI [9]: > 90.1 µM
- TGI [10]: > 100 µM
- TGI [11]: > 100 µM
- TGI [12]: > 100 µM
- TGI [13]: > 100 µM
- TGI [14]: > 100 µM
- TGI [15]: 30.1 µM
- TGI [16]: > 100 µM
- TGI [17]: 64.2 µM
- TGI [18]: > 100 µM
- TGI [19]: > 100 µM
- TGI [20]: > 100 µM
- TGI [21]: > 100 µM
- TGI [22]: > 100 µM
- TGI [23]: > 100 µM
- TGI [24]: > 100 µM
- TGI [25]: > 100 µM
- TGI [26]: > 100 µM
- TGI [27]: > 100 µM
- TGI [28]: > 100 µM
- TGI [29]: > 100 µM
- TGI [30]: > 100 µM
- TGI [31]: > 100 µM
- TGI [32]: > 74.4 µM
- TGI [33]: > 100 µM
- TGI [34]: > 100 µM
- TGI [35]: > 100 µM
- TGI [36]: > 100 µM
- TGI [37]: > 100 µM
- TGI [38]: 61.8 µM
- TGI [39]: > 100 µM
- TGI [40]: > 100 µM
- TGI [41]: > 100 µM
- TGI [42]: 65.2 µM
- TGI [43]: 66.3 µM
- TGI [44]: > 100 µM
- TGI [45]: > 100 µM
- TGI [46]: 45.8 µM
- TGI [47]: > 68.1 µM
- TGI [48]: > 100 µM
- TGI [49]: 82.2 µM
- TGI [50]: > 100 µM
- TGI [51]: > 100 µM
- TGI [52]: > 86.4 µM
- TGI [53]: > 100 µM
- TGI [54]: > 100 µM
- TGI [55]: > 100 µM
- TGI [56]: > 100 µM
- TGI [57]: 44.9 µM

Compound: CCOC(=O)c1c(CN2CCNCC2)nc2ccc(Cl)cc2c1-c1ccccc1
- TGI [1]: 3.15 µM
- TGI [2]: 23.4 µM
- TGI [3]: 17.7 µM
- TGI [4]: 12.9 µM
- TGI [58]: 27 µM
- TGI [5]: 8.11 µM
- TGI [6]: 8.21 µM
- TGI [7]: 4.16 µM
- TGI [8]: 10.1 µM
- TGI [9]: 4.05 µM
- TGI [10]: 5.56 µM
- TGI [59]: 31.9 µM
- TGI [11]: 23.4 µM
- TGI [12]: 3 µM
- TGI [60]: 10.2 µM
- TGI [13]: 10.5 µM
- TGI [14]: 4.38 µM
- TGI [15]: 15.5 µM
- TGI [16]: 21.6 µM
- TGI [17]: 3.16 µM
- TGI [18]: 3.68 µM
- TGI [19]: 17.1 µM
- TGI [20]: 7.03 µM
- TGI [21]: 7.18 µM
- TGI [22]: 6.87 µM
- TGI [23]: 3.26 µM
- TGI [24]: 3.2 µM
- TGI [25]: 3.85 µM
- TGI [26]: 3.61 µM
- TGI [27]: 3.56 µM
- TGI [61]: 28.6 µM
- TGI [62]: 8.21 µM
- TGI [28]: 4.57 µM
- TGI [29]: 33.4 µM
- TGI [30]: 25.7 µM
- TGI [31]: 6.32 µM
- TGI [32]: 9.41 µM
- TGI [33]: 20.2 µM
- TGI [34]: 12.3 µM
- TGI [35]: 36 µM
- TGI [36]: 11.7 µM
- TGI [63]: 12.4 µM
- TGI [37]: 4.89 µM
- TGI [38]: 10.7 µM
- TGI [39]: 6.68 µM
- TGI [40]: 17.9 µM
- TGI [41]: 5.97 µM
- TGI [42]: 7.56 µM
- TGI [43]: 3.36 µM
- TGI [44]: 7.04 µM
- TGI [45]: 2.16 µM
- TGI [46]: 21.3 µM
- TGI [47]: 15 µM
- TGI [48]: 28.4 µM
- TGI [49]: 9.5 µM
- TGI [50]: 24.7 µM
- TGI [64]: 4.51 µM
- TGI [51]: 4.87 µM
- TGI [65]: 20.6 µM
- TGI [52]: 10.8 µM
- TGI [53]: 26.7 µM
- TGI [54]: 3.62 µM
- TGI [55]: 3.76 µM
- TGI [56]: 9.69 µM
- TGI [57]: 9.43 µM
